Data from ChEMBL document CHEMBL1201862, “PubChem BioAssay data set” (2004).
Calls of active or inactive are those of the source.

Experiments:
[1] = reduction of Shn3 3'UTR-driven luciferase in osteoblasts – cell-based, Clone20 osteoblasts, firefly luciferase, cherry-picked, dose response (AID 624132); format: functional;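 note: firefly luciferase luminescence from reporter carrying the Shn3 3'UTR in osteoblasts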
[2] = biological target: FAD-linked sulfhydryl oxidase ALR (Homo sapiens, UniProt P55789); assay: ALR-catalysed DTT oxidation blockers – biochemical, H2O2 detection, luminescence, cherry-pick, dose response (AID 493248)
[3] = non-specific 3'UTR reporter inhibition in Clone20-Shn3RL – cell-based, Renilla luciferase, cherry-picked, counter-screen for Shn3 inhibitor project, dose response (AID 624133); format: functional
[4] = cells; format: functional
[5] = blockers of bursicon-stimulated LGR2 cAMP reporter – cell-based, HEK293, CRE-luciferase reporter, cherry pick, set 2, dose response (AID 743343); format: functional;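 note: transfected cells were stimulated with diluted bursicon conditioned medium after compound addition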
[6] = biological target: Luciferin 4-monooxygenase (Photinus pyralis, UniProt P08659); assay: inhibition of purified Photinus pyralis luciferase – biochemical, luminescence, dose response (AID 1891)
[7] = blockade of melanocortin 4 receptor signaling – cell-based, plate reader, cherry pick, counter-screen for LGR2 antagonist project, dose response (AID 743444); format: functional;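 note: transfected HEK 293 cells stimulated with alpha-MSH peptide; potency of inhibitors of the alpha-MSH evoked signal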
[8] = A549 cell cytotoxicity, dose response, cytotoxicity control, plate reader, cherry-pick, antagonist series (AID 743412); format: functional, cell-based
[9] = Luminescence Cell-Based Dose Confirmation HTS to Identify Inhibitors of Platelet Dense Granule Release. [Related pubchem assays: 1663 (Primary HTS), 1678 (Summary of Project)]; format: functional
[10] = NIH3T3 cell viability loss – ATP luminescence, mouse fibroblasts, counter-screen, dose response (AID 2010); format: functional, cell-based;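 note: cells exposed to compound for about 90 hours before reading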
[11] = Trypanosoma cruzi growth suppression in host cells – NIH3T3 host cells, beta-gal luminescence, confirmation (AID 2044); format: functional, cell-based;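 note: intracellular parasites grown in NIH/3T3 mouse fibroblasts as host cells; luminescent beta-galactosidase reporter signal from transgenic T. cruzi replicating inside host cells; inhibitors lower the luminescence signal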
[12] = system: BJ; assay: BJ-TERT fibroblast viability loss – cell-based, RAS-independent, luminescence, dose response (AID 1933); format: functional; conditions: Homo sapiens
[13] = system: BJ; assay: BJ-TERT-LT-ST fibroblast viability loss – cell-based, RAS-independent, luminescence, dose response (AID 1935); format: functional; conditions: Homo sapiens;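 note: BJ fibroblasts immortalized with TERT plus LT and ST oncogenes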
[14] = DRD fibroblast viability loss – cell-based, non-viral oncogenic, luminescence, dose response (AID 1934); format: functional; conditions: Homo sapiens
[15] = system: BJ; assay: cells; format: functional, cell-based; conditions: Homo sapiens
[16] = fluconazole-exposed Candida albicans growth modulators – fluorescence, retest, confirmation (AID 2467); format: functional, cell-based
[17] = NIH-3T3 fibroblast cytotoxicity, dose response, cytotoxicity control, cell-based, fluorescence, Alamar Blue, secondary assay (AID 2327); format: functional;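 note: NIH-3T3 mouse fibroblasts cultured with fluconazole at 8 µg/mL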
[18] = biological target: T1, Replicative DNA helicase DnaB (Mycobacterium tuberculosis, UniProt P9WMR3); assay: DnaB intein splicing inhibitors, dose response, biochemical, cell-free fluorescence (AID 449749); format: functional
T1 sequence (P9WMR3 whole entry): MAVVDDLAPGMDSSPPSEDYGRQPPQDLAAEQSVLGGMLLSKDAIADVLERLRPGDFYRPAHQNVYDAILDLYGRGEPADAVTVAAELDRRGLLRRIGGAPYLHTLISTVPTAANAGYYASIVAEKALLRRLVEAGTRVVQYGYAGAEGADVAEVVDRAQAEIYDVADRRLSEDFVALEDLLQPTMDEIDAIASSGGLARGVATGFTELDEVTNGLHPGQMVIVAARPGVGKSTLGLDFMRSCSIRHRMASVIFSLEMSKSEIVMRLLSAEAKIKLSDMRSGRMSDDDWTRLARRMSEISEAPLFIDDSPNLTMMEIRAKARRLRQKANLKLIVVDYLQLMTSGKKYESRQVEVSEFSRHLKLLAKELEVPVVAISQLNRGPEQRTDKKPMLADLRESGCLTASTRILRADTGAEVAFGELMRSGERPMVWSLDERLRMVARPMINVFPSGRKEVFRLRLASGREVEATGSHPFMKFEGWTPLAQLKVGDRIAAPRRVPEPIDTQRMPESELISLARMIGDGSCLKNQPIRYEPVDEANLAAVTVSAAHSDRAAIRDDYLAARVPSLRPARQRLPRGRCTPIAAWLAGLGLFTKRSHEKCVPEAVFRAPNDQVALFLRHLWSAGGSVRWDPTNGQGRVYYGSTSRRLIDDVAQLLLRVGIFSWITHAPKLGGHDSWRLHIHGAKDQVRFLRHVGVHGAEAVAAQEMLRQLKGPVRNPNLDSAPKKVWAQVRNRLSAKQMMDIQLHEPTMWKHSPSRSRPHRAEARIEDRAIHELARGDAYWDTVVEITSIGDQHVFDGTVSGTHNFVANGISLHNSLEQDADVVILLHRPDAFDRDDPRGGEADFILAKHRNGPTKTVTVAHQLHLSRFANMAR

[19] = biological target: T2, Protein RecA (Mycobacterium tuberculosis, UniProt P9WHJ3); assay: Fluorescence Cell-Free Homogeneous Dose Retest to Identify Inhibitors of RecA-Intein Splicing Activity. [Related pubchem assays (depositor defined):AID2097, AID2223, AID489010, AID492950]; format: functional
T2 sequence (P9WHJ3 whole entry): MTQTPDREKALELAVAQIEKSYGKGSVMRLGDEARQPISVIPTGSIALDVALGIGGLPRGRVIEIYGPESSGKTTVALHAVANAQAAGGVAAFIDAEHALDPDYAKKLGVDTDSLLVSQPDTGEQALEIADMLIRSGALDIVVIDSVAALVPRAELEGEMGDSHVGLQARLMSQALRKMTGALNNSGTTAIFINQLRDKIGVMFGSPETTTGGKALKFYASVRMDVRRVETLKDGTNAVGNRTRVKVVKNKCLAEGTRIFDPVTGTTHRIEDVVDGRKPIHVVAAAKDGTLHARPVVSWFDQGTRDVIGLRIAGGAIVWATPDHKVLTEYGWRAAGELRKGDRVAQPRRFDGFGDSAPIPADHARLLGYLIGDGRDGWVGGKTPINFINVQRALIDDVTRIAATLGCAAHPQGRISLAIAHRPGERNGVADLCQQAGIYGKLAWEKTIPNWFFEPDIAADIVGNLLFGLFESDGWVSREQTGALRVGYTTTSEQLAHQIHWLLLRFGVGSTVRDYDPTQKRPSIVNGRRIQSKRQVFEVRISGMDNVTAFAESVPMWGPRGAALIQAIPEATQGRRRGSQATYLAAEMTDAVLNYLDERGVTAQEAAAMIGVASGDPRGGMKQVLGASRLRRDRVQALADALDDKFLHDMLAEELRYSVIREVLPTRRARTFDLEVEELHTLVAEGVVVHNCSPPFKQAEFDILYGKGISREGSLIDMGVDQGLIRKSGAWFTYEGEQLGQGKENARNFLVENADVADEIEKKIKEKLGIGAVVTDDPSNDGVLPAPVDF

[20] = viability of uninfected HEp-2 cells – cell-based, HTS, cytotoxicity control for RSV inhibitor project, dose response (AID 2410); format: functional; conditions: human respiratory syncytial virus
[21] = microbe, parasite or virus in culture; format: functional; conditions: Mycobacterium tuberculosis
[22] = biological target: T3, Heat shock factor protein 1 (Mus musculus, UniProt P38532); assay: enhancement of HSF1-driven luciferase signal – cell-based, NIH3T3, luminescence, dose retest, confirmation (AID 435004); format: functional;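 note: stress induced by proteasome inhibitor MG132 added 30 min after compound; luciferase reporter driven by HSF1 response element in NIH3T3 cells; actives raise luminescence as potentiators of the MG132 stress response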
T3 sequence (P38532 whole entry): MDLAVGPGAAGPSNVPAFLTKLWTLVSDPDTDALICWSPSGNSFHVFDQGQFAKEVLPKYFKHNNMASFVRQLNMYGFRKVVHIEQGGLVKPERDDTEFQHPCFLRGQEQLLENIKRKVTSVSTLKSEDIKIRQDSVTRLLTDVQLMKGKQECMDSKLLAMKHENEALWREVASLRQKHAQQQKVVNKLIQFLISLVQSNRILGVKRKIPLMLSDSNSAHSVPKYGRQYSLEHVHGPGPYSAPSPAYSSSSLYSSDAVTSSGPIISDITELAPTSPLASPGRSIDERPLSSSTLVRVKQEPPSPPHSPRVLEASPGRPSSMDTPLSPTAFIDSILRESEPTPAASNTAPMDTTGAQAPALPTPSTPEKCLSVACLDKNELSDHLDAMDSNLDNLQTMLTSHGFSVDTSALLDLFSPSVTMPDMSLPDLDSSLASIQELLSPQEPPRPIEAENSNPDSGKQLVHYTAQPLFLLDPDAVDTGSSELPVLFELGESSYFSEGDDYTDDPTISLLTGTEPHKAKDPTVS

FAD-linked sulfhydryl oxidase ALR, sequence (P55789 whole entry): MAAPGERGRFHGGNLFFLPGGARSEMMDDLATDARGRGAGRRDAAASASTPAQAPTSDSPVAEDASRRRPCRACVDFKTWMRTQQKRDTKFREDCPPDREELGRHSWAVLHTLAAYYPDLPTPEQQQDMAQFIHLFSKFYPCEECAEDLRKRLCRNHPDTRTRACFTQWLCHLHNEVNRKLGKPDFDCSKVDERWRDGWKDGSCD
Luciferin 4-monooxygenase, sequence (P08659 whole entry): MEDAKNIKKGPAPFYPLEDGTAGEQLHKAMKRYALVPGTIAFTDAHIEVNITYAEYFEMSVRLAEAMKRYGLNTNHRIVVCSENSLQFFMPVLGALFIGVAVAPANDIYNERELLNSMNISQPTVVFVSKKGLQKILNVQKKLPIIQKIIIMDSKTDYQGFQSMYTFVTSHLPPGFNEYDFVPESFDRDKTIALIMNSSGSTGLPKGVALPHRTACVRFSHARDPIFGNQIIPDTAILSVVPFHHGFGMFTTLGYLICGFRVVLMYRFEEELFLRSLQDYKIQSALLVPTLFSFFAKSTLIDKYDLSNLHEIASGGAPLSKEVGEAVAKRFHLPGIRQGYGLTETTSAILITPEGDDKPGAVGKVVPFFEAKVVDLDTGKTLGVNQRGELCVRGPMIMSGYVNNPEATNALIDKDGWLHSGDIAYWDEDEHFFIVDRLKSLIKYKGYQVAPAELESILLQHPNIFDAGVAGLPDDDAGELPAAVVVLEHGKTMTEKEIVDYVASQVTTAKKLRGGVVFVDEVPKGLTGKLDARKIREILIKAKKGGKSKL

With `CN(C)c1ncnc2c1C(c1ccccc1)C(C)(C)O2` (stereo not given) the AC50 [1] was > 70 µM (inactive).
For `O=C(O)c1[nH]c2ccccc2c1NS(=O)(=O)c1ccc(F)cc1`, the AC50 [2] was 3.4 µM (active).
In the case of `COC(=O)[C@@]12CCCCN1[C@H](c1ccc(SC3CCCCC3)c(OC)c1)[C@@H]1C(=O)N(C)C(=O)[C@@H]12`, the AC50 [1] is reported as 21.4 µM (active) and the AC50 [3] is reported as 24.2 µM (active).
For `O=C(c1ccccc1)C1CN(Cc2ccccc2)CCC1(O)c1ccccc1` (stereo not given), the IC50 [4] was 18.7 µM (active).
In the case of `CC(=O)Nc1ccc(S(=O)(=O)N[C@@H](C)C(=O)N2CCN(c3ccccn3)CC2)cc1`, the AC50 [2] is reported as 1.37 µM (active).
For `O=C(Nc1ccc(Cl)cc1)Nc1ccccc1C(=O)O`, the AC50 [5] was 9.59 µM (active), the EC50 [6] was < 0.088 µM (active) and the AC50 [7] was 6.99 µM (active). The AC50 [8] was > 52 µM (inactive) and the EC50 [9] was 5.21 µM (active).
In the case of `Cc1ccc(-n2c(S)nnc2-c2cnccn2)cc1`, the AC50 [2] is reported as 6.42 µM (active).
In the case of `Cc1cccc(N2CC(C(=O)Nc3ccccc3N3CCCC3)CC2=O)c1C` (stereo not given), the AC50 [2] is reported as 1.93 µM (active).
For `O=C(Nc1ccc(Br)cc1)c1cc([N+](=O)[O-])cc([N+](=O)[O-])c1`, the EC50 [10] was > 60 µM (not active), the EC50 [11] was 0.19 µM (active) and the IC50 [4] was 11.4 µM (active).
In the case of `O=C(NCC1CCCO1)c1cc2c([nH]c3ccccc32)c(-c2ccc(F)cc2)n1` (stereo not given), the EC50 [12] is reported as 30.7 µM (active), the EC50 [13] is reported as > 150 µM (not active) and the EC50 [14] is reported as 23.6 µM (active). The EC50 [15] was 23.9 µM (active).
In the case of `CC(C)C(=O)NCCSc1c[nH]c2ccccc12`, the AC50 [2] is reported as 3.12 µM (active).
With `CCOc1ccc2nc(NN=C3C(=O)CC(C)(C)CC3=O)sc2c1` the EC50 [16] was 9.16 µM (active) and the EC50 [17] was > 160 µM (inactive).
In the case of `CCCCN(CCCC)S(=O)(=O)c1ccc(C(=O)Nc2nnc(COC)o2)cc1`, the EC50 [16] is reported as 2.92 µM (active) and the EC50 [17] is reported as > 150 µM (inconclusive).
For `CC(C)(C)OC(=O)N/N=C\c1ccc(OC(=O)c2ccco2)cc1`, the AC50 [18] was 34.5 µM (active), the EC50 [19] was 16.2 µM (active) and the IC50 [4] was 39.5 µM (active).
With `Nc1ccc(-c2nc3cc(N)ccc3o2)cc1` the EC50 [6] was > 112 µM (not active), the EC50 [9] was 29.6 µM (active) and the AC50 [2] was 0.289 µM (active).
With `Cc1cccc(C)c1NC(=O)COC(=O)CCc1c[nH]c2ccccc12` the IC50 [4] was 9.65 µM (active).
In the case of `Cc1ccc2nc(-c3ccc(NC(=O)COC(=O)c4ccco4)cc3)sc2c1`, the AC50 [5] is reported as 2.95 µM (active), the CC50 [20] is reported as 14.1 µM (active) and the AC50 [7] is reported as 3.55 µM (active).
With `O/N=C\c1ccc(-c2ccccc2)o1` the AC50 [2] was 6.45 µM (active).
In the case of `CCOC(=O)Cc1csc(NC(=O)c2ccc3ncsc3c2)n1`, the EC50 [16] is reported as > 38 µM (not active) and the EC50 [17] is reported as > 160 µM (inactive).
With `Cc1ccc(NC2CCCN(C(=O)CCCN3CCCCC3=O)C2)cc1C` (stereo not given) the AC50 [2] was 8.32 µM (active).
With `COC(=O)CCn1c(C)cc(C(=O)COc2ccccc2C(N)=O)c1C` the EC50 [12] was 58.1 µM (active), the CC50 [20] was 9.72 µM (active) and the EC50 [13] was > 150 µM (inconclusive). For the same compound, the EC50 [14] was > 150 µM (not active), the EC50 [15] was > 150 µM (not active) and the IC50 [4] was 19.8 µM (active).
With `Cc1oc2cc3oc(=O)c(CC(=O)N[C@@H](C)C(=O)NC(Cc4ccc(Cl)cc4)C(=O)O)c(C)c3cc2c1C` (stereo not given in full) the AC50 [2] was 94.3 µM (active).
For `CCc1nnc(NC(=O)c2cc3ccccc3oc2=O)s1`, the IC50 [4] was 0.81 µM (active).
For `CN(C)c1ccc(C(=O)N/N=C/c2cc(Br)cc(Br)c2O)cc1`, the EC50 [16] was > 38 µM (not active) and the EC50 [17] was 14 µM (active).
For `CCOC(=O)c1cccc(NC2c3ccccc3C(=O)N2Cc2ccco2)c1` (stereo not given), the AC50 [1] was 4.26 µM (active) and the AC50 [3] was 1.94 µM (active).
With `CCOc1ccc(OCCSc2ccc(S(=O)(=O)N3CCN(C)CC3)cn2)cc1` the CC50 [21] was > 40 µM (active) and the IC50 [4] was 19.3 µM (active).
For `O=C(CCS(=O)(=O)c1ccccc1)Nc1nc2c(s1)CCCC2`, the CC50 [20] was 18.5 µM (active) and the AC50 [3] was 25.2 µM (active).
With `CCCSc1cc(N)cc([N+](=O)[O-])c1` the EC50 [16] was > 38 µM (not active) and the EC50 [17] was > 160 µM (inconclusive).
For `C=CCn1c(S)nnc1-c1cc(-c2ccccc2)sc1N`, the EC50 [22] was > 260 µM (inactive) and the AC50 [2] was < 0.005 µM (active).
In the case of `Cc1ccc(/C=N/NC(=O)c2ccc3ccccc3c2)s1`, the EC50 [12] is reported as 4.71 µM (inconclusive), the EC50 [13] is reported as 62.1 µM (active) and the EC50 [14] is reported as 18 µM (inconclusive). For the same compound, the EC50 [15] was 96.4 µM (inconclusive).
With `COC(=O)c1ccc(N2CCN(S(=O)(=O)c3ccc(C)cc3)CC2)c([N+](=O)[O-])c1` the AC50 [1] was 3.88 µM (active) and the AC50 [3] was 2.95 µM (active).
